This note sets out measurements from patent US20050043361A1, “MitoNEET polypeptide from mitochondrial membranes, modulators thereof, and methods of using the same” (priority 2002, published 2005).

Experiment [1] deals with T1, mitoNEET (Rattus norvegicus, UniProt B0K020).
T1 construct: newly prepared crude rat liver mitochondria; from tissue; host or cells: rat liver mitochondria (Sprague-Dawley rats)
T1 sequence (B0K020 1-108): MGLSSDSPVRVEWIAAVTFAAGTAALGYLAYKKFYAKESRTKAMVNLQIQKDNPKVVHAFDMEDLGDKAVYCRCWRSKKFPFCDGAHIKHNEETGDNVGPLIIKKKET
Kind of experiment: Photoaffinity crosslinking of 125I-labelled thiazolidinedione probe to rat liver mitochondria, with or without competing thiazolidinedione. Type of experiment: binding. The procedure:
FIG. 1. A representative 10-20% SDS-PAGE gel (Coomassie stain, left panel) and autoradiogram (right panel). Crosslinking with ^125I-PNU-1010174 was conducted in rat liver mitochondria in the absence (−) or presence of 25 μM (+) of ([6-(2-{4-[(2,4-dioxo-1,3-thiazolidin-5-yl)methyl]phenoxy}ethyl)pyridin-3-yl]acetic acid) (TZD) as described in Example 1. Lanes 1 and 2 are from the rinsed mitochondrial pellet, lanes 3 and 4 represent the same incubations solubilized with 1% Triton X 114, and lanes 5 and 6 are the ammonium sulfate (AS) precipitation of the Triton X 114 soluble material.
FIG. 2. The ammonium sulfate pellets of Triton X 114—soluble mitoNEET from 14 separate incubations conducted with or without competitor were resuspended in a total volume of 200 μl and subjected to HPLC as described in Example 4. Representative data for the minus competitor condition is shown. […] The ^125I, profile from the in-line gamma detector is shown in the lower right panel. The left hand panels show the silver-stained gel (upper left) and corresponding autoradiogram (lower left) of the relevant fractions. Data are shown for a representative rat liver mitochondrial preparation. The ^125I-crosslinked mitoNEET seen in fraction 31 was not present in the preparations crosslinked in the combined presence of ([6-(2-{4-[(2,4-dioxo-1,3-thiazolidin-5-yl)methyl]phenoxy}ethyl)pyridin-3-yl]acetic acid) (not shown). […]

The target in experiment [2] is T2, mitoNEET (Bos taurus, UniProt Q3ZBU2).
T2 construct: from tissue; host or cells: steer brain, sucrose-density mitochondrial fractions B3/B4
T2 sequence (Q3ZBU2 2-106 limits assumed): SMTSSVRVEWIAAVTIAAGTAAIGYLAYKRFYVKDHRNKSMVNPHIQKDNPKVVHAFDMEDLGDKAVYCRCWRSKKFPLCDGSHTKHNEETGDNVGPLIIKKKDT
Kind of experiment: Photoaffinity crosslinking of 125I-labelled thiazolidinedione probe to bovine brain mitochondrial fractions (B3/B4). Type of experiment: binding. To be noted: stored, frozen bovine brain mitochondrial fractions (B3/B4); UV crosslinking. As to the method:
Bovine brain mitochondria were harvested from bovine brains. This procedure involved dissection of steer brains freshly obtained from a local packinghouse. The rinsed brains were homogenized in fractionation buffer (250 mM sucrose, 50 mM Tris, pH=8.0, containing 1 μg/ml pepstatin A, 5 μg/ml leupeptin, 10 μg/ml bacitracin, and 0.1 mM PMSF). Following removal of nuclei at 5000 rpm in a Beckman Ti50, the mitochondrial pellet was harvested at 20,000×g (12,500 rpm in a Beckman Ti50 rotor) and further enriched by sucrose density centrifugation. Membrane fractions were collected from top of the 1.18 and 1.20 density bands, re-suspended in 50 mM Tris, and collected by centrifugation. The factions (“B3/B4”) were stored at −80° C. until use.
Crosslinking reactions were carried out in a final volume of 200 μl, containing 100 μl membranes, 50 μl 4% DMSO with or without competing thiazolidinedione (usually 100 μM ([6-(2-{4-[(2,4-dioxo-1,3-thiazolidin-5-yl)methyl]phenoxy}ethyl)pyridin-3-yl]acetic acid), 25 μM final concentration), and 50 μl carrier-free ^125I-4-azido-N-[2-({[6-(2-{4-[(2,4-dioxo-1,3-thiazolidin-5-yl)methyl]phenoxy}ethyl)pyridin-3-yl]acetyl}amino)ethyl]-2-hydroxybenzamide (0.1-0.2 μCi/tube). […]

In a further experiment the test system is fatty acid oxidation. Kind of experiment: Oxidation of palmitoyl CoA by solubilized mitochondria with and without synthetic mitoNEET (HPLC). Type of experiment: biochemical. To be noted: excess synthetic mitoNEET; solubilized mitochondrial preparations; CoASH, NAD, FAD, 1 mM palmitoyl CoA. As to the method:
FIG. 10. Oxidation of palmitoyl CoA was measured by solubilized mitochondria with and without the addition of synthetic mitoNEET. Reactions were conducted in the presence of CoASH, NAD, FAD, and 1 mM palmitoyl CoA. Remaining palmitoyl CoA at various time points after incubation is shown in the absence (closed circles) and presence of excess synthetic mitoNEET peptide 11A (closed squares). There was no loss of substrate in the absence of mitochondrial membranes (open triangles). Substrate and generated CoA products were measured by HPLC.
Full-length mitoNEET synthesized as in Example 6 was extended to contain a N-terminal biotin. […] A number of these proteins have been identified and are know to be involved in fatty acid oxidation. […] Modulation of mitoNEET function would be expected to increase fatty acid oxidation. Such an approach to find useful modulators as described herein may be taken with synthetic peptide or membranes containing endogenous or overexpressed mitoNEET.

“Also recorded” adds a separate entry of the source.

Consider `[N-]=[N+]=Nc1cc(O)c(C(=O)NCCNC(=O)Cc2ccc(CCOc3ccc(CC4SC(=O)NC4=O)cc3)nc2)cc1[125I]` (stereo not shown), for which the “labeling of mitoNEET by crosslinking” value on mitoNEET [1] (newly prepared crude rat liver mitochondria, UV crosslinking, carrier-free probe 0.1-0.2 μCi/tube) is “labeling of the mitoNEET”; at mitoNEET [2], “labeling of the mitoNEET”. As for `O=C(O)Cc1ccc(CCOc2ccc(CC3SC(=O)NC3=O)cc2)nc1` (stereo not shown) [[6-(2-{4-[(2,4-dioxo-1,3-thiazolidin-5-yl)methyl]phenoxy}ethyl)pyridin-3-yl]acetic acid], the “125I-crosslinked mitoNEET peak (HPLC) in presence of competitor” value at mitoNEET [1] (competitor 25 μM final concentration, HPLC with in-line gamma detector, fraction 31, identical results with bovine brain fractions) was “lacked this peak; also recorded: not present”.

B1: synthetic mitoNEET: Full-length mitoNEET polypeptide made by peptide synthesis (peptide, UniProt Q9NZ45 1-108, looked up)
chain: MSLTSSSSVRVEWIAAVTIAAGTAAIGYLAYKRFYVKDHRNKAMINLHIQKDNPKIVHAFDMEDLGDKAVYCRCWRSKKFPFCDGAHTKHNEETGDNVGPLIIKKKET
modifications: full-length chemically synthesized
notes: Full-length mitoNEET polypeptide made by peptide synthesis
In the case of B1, the “effect on fatty acid oxidation (remaining palmitoyl CoA)” value in the experiment on fatty acid oxidation was “inhibits fatty acid oxidation”.
